Assay results: ChEMBL document CHEMBL1909294, “Translating clinical findings into knowledge in drug safety evaluation--drug induced liver injury prediction system (DILIps)” (PLoS Comput Biol, 2011)

How the values were obtained:
Hepatotoxicity [1] = test system: Hepatotoxicity;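 on HepSE bilirubinemia: bilirubinemia hepatic side effect score drawn from the DILIps training data, a prediction system for drug-induced liver injury; call rule not given here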;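 on HepSE cholecystitis: Cholecystitis-related hepatic side effect score drawn from the DILIps (drug-induced liver injury prediction) training data set; call rule not given here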;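 on HepSE cholelithiasis: hepatic side effect score for cholelithiasis, drawn from the DILIps training data for predicting drug-induced liver injury; call rule not given here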; on HepSE hepatic failure: call rule not given here;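 on HepSE hepatomegaly: hepatic side effect score for hepatomegaly, taken from the training set of the DILIps drug-induced liver injury prediction system; call rule not given here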;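 on HepSE jaundice: Jaundice-related hepatic side-effect score drawn from the training data of the DILIps (drug-induced liver injury prediction system); call rule not given here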;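 on HepSE liver function tests abnormal: hepatic side effect score taken from the DILIps (drug-induced liver injury prediction system) training data, here covering abnormal liver function test findings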
Hepatotoxicity [2] = test system: Hepatotoxicity; remark: listed apart in the source;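 on HepSE cholecystitis: Cholecystitis-related hepatic side effect score drawn from the DILIps (drug-induced liver injury prediction) training data set; call rule not given here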;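 on HepSE cholelithiasis: hepatic side effect score for cholelithiasis, drawn from the DILIps training data for predicting drug-induced liver injury; call rule not given here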; on HepSE hepatic failure: call rule not given here;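 on HepSE hepatomegaly: hepatic side effect score for hepatomegaly, taken from the training set of the DILIps drug-induced liver injury prediction system; call rule not given here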;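 on HepSE jaundice: Jaundice-related hepatic side-effect score drawn from the training data of the DILIps (drug-induced liver injury prediction system); call rule not given here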;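 on HepSE liver function tests abnormal: hepatic side effect score taken from the DILIps (drug-induced liver injury prediction system) training data, here covering abnormal liver function test findings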
Hepatotoxicity [3] = test system: Hepatotoxicity; remark: listed apart in the source;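 on HepSE cholecystitis: Cholecystitis-related hepatic side effect score drawn from the DILIps (drug-induced liver injury prediction) training data set; call rule not given here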;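 on HepSE cholelithiasis: hepatic side effect score for cholelithiasis, drawn from the DILIps training data for predicting drug-induced liver injury; call rule not given here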; on HepSE hepatic failure: call rule not given here;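 on HepSE hepatomegaly: hepatic side effect score for hepatomegaly, taken from the training set of the DILIps drug-induced liver injury prediction system; call rule not given here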;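 on HepSE jaundice: Jaundice-related hepatic side-effect score drawn from the training data of the DILIps (drug-induced liver injury prediction system); call rule not given here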;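 on HepSE liver function tests abnormal: hepatic side effect score taken from the DILIps (drug-induced liver injury prediction system) training data, here covering abnormal liver function test findings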
Hepatotoxicity [4] = test system: Hepatotoxicity; remark: listed apart in the source;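 on HepSE cholecystitis: Cholecystitis-related hepatic side effect score drawn from the DILIps (drug-induced liver injury prediction) training data set; call rule not given here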;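 on HepSE cholelithiasis: hepatic side effect score for cholelithiasis, drawn from the DILIps training data for predicting drug-induced liver injury; call rule not given here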; on HepSE hepatic failure: call rule not given here;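 on HepSE hepatomegaly: hepatic side effect score for hepatomegaly, taken from the training set of the DILIps drug-induced liver injury prediction system; call rule not given here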;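 on HepSE jaundice: Jaundice-related hepatic side-effect score drawn from the training data of the DILIps (drug-induced liver injury prediction system); call rule not given here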;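 on HepSE liver function tests abnormal: hepatic side effect score taken from the DILIps (drug-induced liver injury prediction system) training data, here covering abnormal liver function test findings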
Hepatotoxicity [5] = test system: Hepatotoxicity; remark: listed apart in the source; on HepSE hepatic failure: call rule not given here
Hepatotoxicity [6] = test system: Hepatotoxicity; remark: listed apart in the source; on HepSE hepatic failure: call rule not given here
Hepatotoxicity [7] = test system: Hepatotoxicity; remark: listed apart in the source
Hepatotoxicity [8] = test system: Hepatotoxicity; remark: listed apart in the source
Hepatotoxicity [9] = test system: Hepatotoxicity; remark: listed apart in the source
Hepatotoxicity [10] = test system: Hepatotoxicity; remark: listed apart in the source
Hepatotoxicity [11] = test system: Hepatotoxicity; remark: listed apart in the source
Hepatotoxicity [12] = test system: Hepatotoxicity; remark: listed apart in the source
Hepatotoxicity [13] = test system: Hepatotoxicity; remark: listed apart in the source
Hepatotoxicity [14] = test system: Hepatotoxicity; remark: listed apart in the source

Compound | HepSE_jaundice (Hepatotoxicity [1]) | HepSE_cholelithiasis (Hepatotoxicity [2]) | HepSE_hepatic failure (Hepatotoxicity [3]) | HepSE_liver function tests abnormal (Hepatotoxicity [4]) | HepSE_cholecystitis (Hepatotoxicity [5]) | HepSE_hepatomegaly (Hepatotoxicity [6]) | HepSE_bilirubinemia (Hepatotoxicity [7]) | HepSE_liver fatty (Hepatotoxicity [8]) | HepSE_Combined Scores (Hepatotoxicity [9]) | HepSE_elevated liver function tests (Hepatotoxicity [10]) | HepSE_cirrhosis (Hepatotoxicity [11]) | HepSE_hepatitis (Hepatotoxicity [12]) | HepSE_liver disease (Hepatotoxicity [13]) | HepSE_hepatic necrosis (Hepatotoxicity [14])
Cc1cccc(Nc2ccncc2S(=O)(=O)NC(=O)NC(C)C)c1 [TORSEMIDE] | 0 | 0 | 1 | 0 | 0 | 0 | 0 | 0 | 2 | 0 | 1 | 0 | 0 | 0
CC(=O)N(CC(O)CN(C(C)=O)c1c(I)c(C(=O)NCC(O)CO)c(I)c(C(=O)NCC(O)CO)c1I)c1c(I)c(C(=O)NCC(O)CO)c(I)c(C(=O)NCC(O)CO)c1I (configuration not stated) [IODIXANOL] | 0 | 0 | 0 | 0 | 0 | 0 | 0 | 0 | 0 | 0 | 0 | 0 | 0 | 0
CC(=O)CCCCn1c(=O)c2c(ncn2C)n(C)c1=O [PENTOXIFYLLINE] | 1 | 0 | 0 | 0 | 1 | 0 | 0 | 0 | 3 | 0 | 0 | 1 | 0 | 0
COC(=O)C(c1ccccc1)C1CCCCN1 (configuration not stated) [METHYLPHENIDATE] | 0 | 0 | 0 | 1 | 0 | 0 | 0 | 0 | 1 | 0 | 0 | 0 | 0 | 0
CCC(=O)O[C@](Cc1ccccc1)(c1ccccc1)[C@H](C)CN(C)C [PROPOXYPHENE] | 1 | 0 | 0 | 1 | 0 | 0 | 0 | 0 | 2 | 0 | 0 | 0 | 0 | 0
O=C(N[C@H](CO)[C@H](O)c1ccc([N+](=O)[O-])cc1)C(Cl)Cl [CHLORAMPHENICOL] | 0 | 0 | 0 | 0 | 0 | 0 | 0 | 0 | 0 | 0 | 0 | 0 | 0 | 0
CN(N=O)C(=O)N[C@@H](C=O)[C@@H](O)[C@H](O)[C@H](O)CO [STREPTOZOCIN] | 0 | 0 | 0 | 0 | 0 | 0 | 0 | 0 | 0 | 0 | 0 | 0 | 0 | 0
CO/N=C(\C(=O)N[C@@H]1C(=O)N2C(C(=O)O)=C(COC(N)=O)CS[C@H]12)c1ccco1 [CEFUROXIME] | 1 | 0 | 0 | 0 | 0 | 0 | 0 | 0 | 2 | 0 | 0 | 1 | 0 | 0
GADOTERIDOL | 0 | 0 | 0 | 0 | 0 | 0 | 0 | 0 | 0 | 0 | 0 | 0 | 0 | 0
CC=CC1=C(C(=O)O)N2C(=O)[C@@H](NC(=O)[C@H](N)c3ccc(O)cc3)[C@H]2SC1 [CEFPROZIL] | 1 | 0 | 0 | 0 | 0 | 0 | 0 | 0 | 1 | 0 | 0 | 0 | 0 | 0
CC1(C)O[C@@H]2C[C@H]3[C@@H]4C[C@H](F)C5=CC(=O)C=C[C@]5(C)[C@@]4(F)[C@@H](O)C[C@]3(C)[C@]2(C(=O)CO)O1 [FLUOCINOLONE ACETONIDE] | 0 | 0 | 0 | 0 | 0 | 0 | 0 | 0 | 0 | 0 | 0 | 0 | 0 | 0
COc1cc2c(cc1OC)C(=O)C(CC1CCN(Cc3ccccc3)CC1)C2 (configuration not stated) [DONEPEZIL] | 1 | 1 | 0 | 1 | 1 | 0 | 1 | 0 | 6 | 0 | 0 | 1 | 0 | 0
CC(=O)[C@@]1(O)CC[C@H]2[C@@H]3C=C(Cl)C4=CC(=O)[C@@H]5C[C@@H]5[C@]4(C)[C@H]3CC[C@@]21C [CYPROTERONE] | 1 | 0 | 1 | 0 | 0 | 1 | 0 | 0 | 6 | 0 | 1 | 1 | 0 | 1
